Measurements taken from ChEMBL document CHEMBL5550176, “Destruxin E backbone modification effects on osteoclast Morphology: Synthesis and SAR study of N-Desmethyl and N-Methyl analogs” (2024).
Numbered stars: 1 amine (or outer) side, 2 acyl side, 3 side chain; on linkers, the order of the positions; unused ones are H or OH. Square brackets hold non-standard residues; d marks the D form. Peptide text beside a SMILES is read from it. X1 = O=C([C@@H](C[C@H]1CO1)O[*:1])[*:2]; NMeI = CC[C@H](C)[C@H](NC)C(=O)O; NMeβAla = CN(CCC(=O)[*:2])[*:1]; NMeV = CN[C@H](C(=O)O)C(C)C; NMeA = CN[C@@H](C)C(=O)O; βAla = NCCC(=O)O

The compounds below were run on Osteoclast (assay: Induction of morphological changes in mouse Osteoclast cells incubated for 24 hrs by TRAP staining based fluorescence microscopy analysis).
Type: functional

Row | SMILES | Activity [µM]
1 | CC[C@H](C)[C@@H]1NC(=O)[C@@H]2CCCN2C(=O)[C@@H](C[C@H]2CO2)OC(=O)CCNC(=O)[C@H](C)N(C)C(=O)[C@H](C(C)C)NC1=O (cyclo(IV[NMeA][βAla][X1]P)) | 1.6
2 | CC[C@H](C)[C@@H]1NC(=O)[C@@H]2CCCN2C(=O)[C@@H](C[C@H]2CO2)OC(=O)CCNC(=O)[C@H](C)NC(=O)[C@H](C(C)C)N(C)C1=O (cyclo(A[βAla][X1]PI[NMeV])) | >50
3 | CC[C@H](C)[C@@H]1NC(=O)[C@@H]2CCCN2C(=O)[C@@H](C[C@H]2CO2)OC(=O)CCN(C)C(=O)[C@H](C)N(C)C(=O)[C@H](C(C)C)N(C)C1=O (cyclo(I[NMeV][NMeA][NMeβAla][X1]P)) | 50
4 | CC[C@H](C)[C@H]1C(=O)N(C)[C@@H](C(C)C)C(=O)N(C)[C@@H](C)C(=O)NCCC(=O)O[C@H](C[C@H]2CO2)C(=O)N2CCC[C@H]2C(=O)N1C (cyclo([NMeA][βAla][X1]P[NMeI][NMeV])) | 12.5
